Reference: US20220323406A1, “METHODS AND COMPOSITIONS FOR DIFFERENTIATING STEM CELLS” (Massachusetts Institute of Technology, priority 2019, published 2022)
“Also recorded” adds a separate entry of the source.

What was measured:
ENR+CD organoids = assay: Primary screen: ATP (CellTiter-Glo 3D, CTG) cell number/viability, 2.5-D 384-well ENR+CD organoids; conditions: primary screen; for Z.CTG: standard z score;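 for all read-outs here: compounds given at plating and again on day 3 over a 6-day differentiation from ENR+CV stem-cell-enriched precursors, ATP measured on day 6, plate median as control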
[1] = test system: ENR+CD organoids (ISC to Paneth cell differentiation); assay: Primary screen: CCh-stimulated lysozyme secretion LYZ.S, 2.5-D 384-well ENR+CD organoid differentiation; format: cell-based, mouse; conditions: for Dose.FC.LYZ.S / SSMD.LYZ.S_Rep (strictly standardized mean difference) / Z.LYZ.S (standard z score) / Dose.FC.LYZ.S (log2 fold change): primary screen
Source text: (§1) High-throughput screening.

[2] = test system: ENR+CD organoids (ISC to Paneth cell differentiation); assay: Primary screen: basal (non-stimulated) lysozyme secretion LYZ.NS, 2.5-D 384-well ENR+CD organoid differentiation; format: cell-based, mouse; conditions: for Z.LYZ.NS / Dose.FC.LYZ.NS / SSMD.LYZ.NS_Rep (strictly standardized mean difference) / Z.LYZ.NS (standard z score) / Dose.FC.LYZ.NS (log2 fold change): primary screen; for Z.LYZ.NS: standard z score
Source text: as §1

[3] = dose 0.08 uM, FC vs plate median
[4] = dose 0.40 uM, FC vs plate median
[5] = dose 2.00 uM, FC vs plate median
[6] = dose 10.00 uM, FC vs plate median
[7] = 1st dose row of the treatment (0.08 uM by row order; dose not reprinted)
[8] = 2nd dose row of the treatment (0.40 uM by row order; dose not reprinted)
[9] = 3rd dose row of the treatment (2.00 uM by row order; dose not reprinted)
[10] = 4th dose row of the treatment (10.00 uM by row order; dose not reprinted)

Compound	Dose.FC.CTG (ENR+CD organoids; dose 0.08 uM) [log2 fold change]	Z.CTG (standard z score) (ENR+CD organoids; dose 0.08 uM)	Dose.FC.CTG (ENR+CD organoids; dose 0.40 uM) [log2 fold change]	Z.CTG (standard z score) (ENR+CD organoids; dose 0.40 uM)	Dose.FC.CTG (ENR+CD organoids; dose 2.00 uM) [log2 fold change]	Z.CTG (standard z score) (ENR+CD organoids; dose 2.00 uM)	Dose.FC.CTG (ENR+CD organoids; dose 10.00 uM) [log2 fold change]	Z.CTG (standard z score) (ENR+CD organoids; dose 10.00 uM)	Dose.FC.LYZ.S ([1]; dose 0.08 uM) [log2 fold change]	Dose.FC.LYZ.S ([1]; dose 0.40 uM) [log2 fold change]	Dose.FC.LYZ.S ([1]; dose 2.00 uM) [log2 fold change]	Dose.FC.LYZ.S ([1]; dose 10.00 uM) [log2 fold change]	Z.LYZ.NS (standard z score) ([2]; dose 0.08 uM)	Z.LYZ.NS (standard z score) ([2]; dose 0.40 uM)	Z.LYZ.NS (standard z score) ([2]; dose 2.00 uM)	Z.LYZ.NS (standard z score) ([2]; dose 10.00 uM)	other results
O=[N+]([O-])C=Cc1ccc2c(c1)OCO2																	Z.CTG (ENR+CD organoids; dose 0.08 uM): −0.037; Z.CTG (ENR+CD organoids; dose 0.40 uM): 0.146; Z.CTG (ENR+CD organoids; dose 2.00 uM): 0.148; Z.CTG (ENR+CD organoids; dose 10.00 uM): −0.469; Dose.FC.CTG (ENR+CD organoids; [3]): −0.016 log2 fold change; Dose.FC.CTG (ENR+CD organoids; [4]): 0.061 log2 fold change; Dose.FC.CTG (ENR+CD organoids; [5]): 0.062 log2 fold change; Dose.FC.CTG (ENR+CD organoids; [6]): −0.197 log2 fold change; Dose.FC.LYZ.S [1, 3]: 0.076 log2 fold change; Dose.FC.LYZ.S [1, 4]: 0.100 log2 fold change; Dose.FC.LYZ.S [1, 5]: 0.019 log2 fold change; Dose.FC.LYZ.S [1, 6]: −0.179 log2 fold change; Z.LYZ.NS ([2]; dose 0.08 uM): 0.499; Z.LYZ.NS ([2]; dose 0.40 uM): −0.088; Z.LYZ.NS ([2]; dose 2.00 uM): 0.347; Z.LYZ.NS ([2]; dose 10.00 uM): −1.307; Dose.FC.LYZ.NS [2, 3]: 0.057 log2 fold change; Dose.FC.LYZ.NS [2, 4]: −0.010 log2 fold change; Dose.FC.LYZ.NS [2, 5]: 0.040 log2 fold change; Dose.FC.LYZ.NS [2, 6]: −0.150 log2 fold change
O=C(O)C(Cc1ccccc1[N+](=O)[O-])=NNc1nc(-c2ccc(Cl)c(Cl)c2)cs1 (mixture of isomers) [4EGI-1]	−0.160	−0.383	−0.131	−0.314	0.127	0.304	−0.109	−0.261	−0.037	0.054	−0.059	0.057	0.956	0.315	0.597	−0.300	SSMD.CTG.Rep (strictly standardized mean difference) (ENR+CD organoids; [7]): −0.352; SSMD.CTG.Rep (strictly standardized mean difference) (ENR+CD organoids; [8]): −0.158; SSMD.CTG.Rep (strictly standardized mean difference) (ENR+CD organoids; [9]): 0.407; SSMD.CTG.Rep (strictly standardized mean difference) (ENR+CD organoids; [10]): −0.283; SSMD.LYZ.S_Rep (strictly standardized mean difference) [1, 7]: −0.264; Z.LYZ.S (standard z score) [1, 7]: −0.236; SSMD.LYZ.S_Rep (strictly standardized mean difference) [1, 8]: 0.326; Z.LYZ.S (standard z score) [1, 8]: 0.352; SSMD.LYZ.S_Rep (strictly standardized mean difference) [1, 9]: −0.328; Z.LYZ.S (standard z score) [1, 9]: −0.380; SSMD.LYZ.S_Rep (strictly standardized mean difference) [1, 10]: 0.189; Z.LYZ.S (standard z score) [1, 10]: 0.366; SSMD.LYZ.NS_Rep (strictly standardized mean difference) [2, 7]: 0.378; SSMD.LYZ.NS_Rep (strictly standardized mean difference) [2, 8]: 0.264; SSMD.LYZ.NS_Rep (strictly standardized mean difference) [2, 9]: 0.252; SSMD.LYZ.NS_Rep (strictly standardized mean difference) [2, 10]: −0.257; Dose.FC.LYZ.NS ([2]; dose 0.08 uM): 0.110 log2 fold change; Dose.FC.LYZ.NS ([2]; dose 0.40 uM): 0.036 log2 fold change; Dose.FC.LYZ.NS ([2]; dose 2.00 uM): 0.069 log2 fold change; Dose.FC.LYZ.NS ([2]; dose 10.00 uM): −0.034 log2 fold change
Fc1cc(F)c2c(c1)[C@H]1C=CC[C@H]1C(c1cccnc1)N2 (mixture of isomers) [Golgicide A]		0.398		0.541		0.810		−0.526					2.325	0.576	1.492	−1.402	Dose.FC.CTG (log2 fold change) (ENR+CD organoids; dose 0.08 uM): 0.167; Dose.FC.CTG (log2 fold change) (ENR+CD organoids; dose 0.40 uM): 0.227; Dose.FC.CTG (log2 fold change) (ENR+CD organoids; dose 2.00 uM): 0.339; Dose.FC.CTG (log2 fold change) (ENR+CD organoids; dose 10.00 uM): −0.220; Dose.FC.LYZ.S (log2 fold change) ([1]; dose 0.08 uM): 0.146; Dose.FC.LYZ.S (log2 fold change) ([1]; dose 0.40 uM): 0.202; Dose.FC.LYZ.S (log2 fold change) ([1]; dose 2.00 uM): 0.076; Dose.FC.LYZ.S (log2 fold change) ([1]; dose 10.00 uM): −0.256; Dose.FC.LYZ.NS (log2 fold change) ([2]; dose 0.08 uM): 0.267; Dose.FC.LYZ.NS (log2 fold change) ([2]; dose 0.40 uM): 0.066; Dose.FC.LYZ.NS (log2 fold change) ([2]; dose 2.00 uM): 0.171; Dose.FC.LYZ.NS (log2 fold change) ([2]; dose 10.00 uM): −0.161
C[C@H]1COC2(CCN(c3nc(=O)c4cc(C(F)(F)F)cc([N+](=O)[O-])c4s3)CC2)O1 (racemic) [BTZ043 Racemate]	0.497	1.187	0.545	1.303	0.063	0.150	0.327	0.782	0.199	0.252	0.038	0.070	1.138	1.619	0.776	0.870	Dose.FC.LYZ.NS ([2]; dose 0.08 uM): 0.131 log2 fold change; Dose.FC.LYZ.NS ([2]; dose 0.40 uM): 0.186 log2 fold change; Dose.FC.LYZ.NS ([2]; dose 2.00 uM): 0.089 log2 fold change; Dose.FC.LYZ.NS ([2]; dose 10.00 uM): 0.100 log2 fold change
Cl.N[C@@H]1C[C@H]1c1ccccc1 (racemic) [Tranylcypromine (2-PCPA) HCl]	−0.064	−0.153	0.062	0.148	0.053	0.128	−0.533	−1.274	0.050	−0.037	0.036	−0.096	0.285	−0.426	0.423	−0.389	Dose.FC.LYZ.NS ([2]; dose 0.08 uM): 0.033 log2 fold change; Dose.FC.LYZ.NS ([2]; dose 0.40 uM): −0.049 log2 fold change; Dose.FC.LYZ.NS ([2]; dose 2.00 uM): 0.049 log2 fold change; Dose.FC.LYZ.NS ([2]; dose 10.00 uM): −0.045 log2 fold change
COc1cc(CCc2cc(NC(=O)c3ccc(N4CC(C)NC(C)C4)cc3)n[nH]2)cc(OC)c1 (centres unmarked) [AZD4547]	0.160	0.382	0.101	0.241	−0.010	−0.024	−0.062	−0.147	0.157	0.083	0.074	−0.049					
CC(C)C[C@H](NC(=O)[C@H](Cc1ccccc1)NC(=O)c1cnccn1)B(O)O [Bortezomib (PS-341)]	−1.904	−4.547	−2.146	−5.127	−0.915	−2.185	−1.359	−3.246	−0.239	−0.173	−0.249	−0.238					
C[N+](C)(C)CCOC(N)=O.[Cl-] [CCh, carbamoylcholine chloride, reference compound]																	secreted LYZ in LYZ.S assay, controls subsequently stimulated with CCh vs non-stimulated ([1]; 10 uM CCh, adj. p<0.05): showed significant differences; also recorded: significant increase in secreted LYZ; secreted LYZ in LYZ.NS assay, CCh-stimulated vs non-stimulated ENR+CD controls ([2]; 10 uM CCh, adj. p<0.0001): significantly greater
CC1=C(/C=C/C(C)=C/C=C/C(C)=C\C(=O)O)C(C)(C)CCC1 [Isotretinoin]														0.407	0.578	0.718	
O=c1cc(-c2cccc3c2Sc2ccccc2S3)oc(N2CCOCC2)c1 [KU-55933 (ATM Kinase Inhibitor)]		1.251		1.140		1.317		1.293									
CNC(=O)c1cc(Oc2ccc(NC(=O)Nc3cc(C(C)(C)C)nn3-c3ccc4ncccc4c3)c(F)c2)ccn1 [Rebastinib, reference compound]																	primary screen hit call (SSMD and z-scored FC cutoffs in both LYZ assays) ([2]; LYZ.NS and LYZ.S, 0.08-10 uM, 6 days ENR+CD): excluded from the hit list due to underperformance on all three assays compared to Bosutinib
C=CC(=O)Nc1cccc(Oc2nc(Nc3ccc(N4CCN(C)CC4)cc3OC)ncc2Cl)c1 [WZ4002]	0.313	0.748	0.082	0.196	0.151	0.360	−0.941	−2.248	0.114	0.046	−0.109	−0.319					
KX2-391		−1.796		−2.989		−4.737		−3.377					−2.468	−2.546	−2.188	−2.494	Dose.FC.LYZ.NS (log2 fold change) ([2]; dose 0.08 uM): −0.283; Dose.FC.LYZ.NS (log2 fold change) ([2]; dose 2.00 uM): −0.251; Dose.FC.LYZ.NS (log2 fold change) ([2]; dose 10.00 uM): −0.286
